A short description of this data set: Solubility in DI water at 1 wt % (visual observation, FIG. 5). The class given is physicochemical. On the procedure: PA-C16-GTAGLKKK-YIGSR (SEQ ID NO: 19) and PA-C16-GTAKKKKK-YIGSR (SEQ ID NO:20) were dissolved in DI water at 1 wt %. […] Higher percent transmittance indicates less opaqueness of solution, which corresponds with increased solubility of the peptide amphiphiles in DI water. Thus, PA-C16-GTAGLKKK-YIGSR (SEQ ID NO: 19) and PA-C16-GTAKKKKK-YIGSR (SEQ ID NO:20) are more soluble than unmodified PA-C16-GTAGLIGQ-YIGSR (SEQ ID NO:21).

Peptide text beside a SMILES is read from it. * marks the point of attachment. Palmitoyl = CCCCCCCCCCCCCCCC(=O)*

In the case of `CCCCCCCCCCCCCCCC(=O)NCC(=O)N[C@H](C(=O)N[C@@H](C)C(=O)NCC(=O)N[C@@H](CC(C)C)C(=O)N[C@H](C(=O)NCC(=O)N[C@@H](CCC(N)=O)C(=O)N[C@@H](Cc1ccc(O)cc1)C(=O)N[C@H](C(=O)NCC(=O)N[C@@H](CO)C(=O)N[C@@H](CCCNC(=N)N)C(=O)O)[C@@H](C)CC)[C@@H](C)CC)[C@@H](C)O` [PA-C16-GTAGLIGQ-YIGSR, PA-C16-GTAGLIGQ-YIGSR (SEQ ID NO:21), reference compound] (Palmitoyl-GTAGLIGQYIGSR-OH; N-terminus and C-terminus assumed), the solubility entry is “insoluble and forms precipitates”. In the case of `CCCCCCCCCCCCCCCC(=O)NCC(=O)N[C@H](C(=O)N[C@@H](C)C(=O)NCC(=O)N[C@@H](CC(C)C)C(=O)N[C@@H](CCCCN)C(=O)N[C@@H](CCCCN)C(=O)N[C@@H](CCCCN)C(=O)N[C@@H](Cc1ccc(O)cc1)C(=O)N[C@H](C(=O)NCC(=O)N[C@@H](CO)C(=O)N[C@@H](CCCNC(=N)N)C(=O)O)[C@@H](C)CC)[C@@H](C)O` [PA-C16-GTAGLKKK-YIGSR, PA-C16-GTAGLKKK-YIGSR (SEQ ID NO:19)] (Palmitoyl-GTAGLKKKYIGSR-OH; N-terminus and C-terminus assumed) it was “form homogenous, transparent solutions”; in that of `CCCCCCCCCCCCCCCC(=O)NCC(=O)N[C@H](C(=O)N[C@@H](C)C(=O)N[C@@H](CCCCN)C(=O)N[C@@H](CCCCN)C(=O)N[C@@H](CCCCN)C(=O)N[C@@H](CCCCN)C(=O)N[C@@H](CCCCN)C(=O)N[C@@H](Cc1ccc(O)cc1)C(=O)N[C@H](C(=O)NCC(=O)N[C@@H](CO)C(=O)N[C@@H](CCCNC(=N)N)C(=O)O)[C@@H](C)CC)[C@@H](C)O` [PA-C16-GTAKKKKK-YIGSR, PA-C16-GTAKKKKK-YIGSR (SEQ ID NO:20)] (Palmitoyl-GTAKKKKKYIGSR-OH; N-terminus and C-terminus assumed), “form homogenous, transparent solutions”.

The values above are taken from patent publication US20240218017A1, “PEPTIDE AMPHIPHILES WITH MODIFIED DEGRADING SEQUENCES AND METHODS OF USE THEREOF” (UAB RESEARCH FOUNDATION, priority 2022, published 2024).
